# What was measured:
# [1] = test system: rat primary cortical cells; assay: Toxicity of human Aβ1-42 peptide on primary cortical neuron cells: LDH release; type: cell-based; details: for protection of neurons from amyloid injury: 1 h pre-treatment, Estradiol 150 nM or BDNF 50 ng/mL
# Procedure: Rat cortical neurons were cultured as described by Singer et al. (47). Briefly pregnant female rats of 15 days gestation were killed by cervical dislocation (Rats Wistar) and the foetuses were removed from the uterus. The cortex was removed and placed in ice-cold medium of Leibovitz (L15) containing 2% of Penicillin 10.000 U/ml and Streptomycin 10 mg/ml and 1% of bovine serum albumin (BSA). Cortexes were dissociated by trypsin for 20 min at 37° C. (0.05%). The reaction was stopped by the addition of Dulbecco's modified Eagle's medium (DMEM) containing DNasel grade II and 10% of foetal calf serum (FCS). Cells were then mechanically dissociated by 3 serial passages through a 10 ml pipette and centrifuged at 515×g for 10 min at +4° C. The supernatant was discarded and the pellet of cells was re-suspended in a defined culture medium consisting of Neurobasal supplemented with B27 (2%), L-glutamine (0.2 mM), 2% of PS solution and 10 ng/ml of BDNF. Viable cells were counted in a Neubauer cytometer using the trypan blue exclusion test. The cells were seeded at a density of 30 000 cells/well in 96 well-plates (wells were pre-coated with poly-L-lysine (10 μg/ml)) and were cultured at +37° C. in a humidified air (95%)/CO2 (5%) atmosphere.
# Briefly, Aβ1-42 peptide was reconstituted in define culture medium at 40 μM (mother solution) and was slowly shaken at +37° C. for 3 days in dark. The control medium was prepared in the same conditions.
# After 10 days of neuron culture, test compounds were solved in culture medium (+0.1% DMSO) and then pre-incubated with neurons for 1 hour before the Aβ1-42 application (in a final volume per culture well of 100 μl). One hour after test compound(s) incubation, 100 μl of Aβ1-42 peptide was added to a final concentration of 10 μM diluted in presence of drug(s), in order to avoid further test compound(s) dilutions. Cortical neurons were intoxicated for 24 hours. Three separate cultures were performed per condition, 6 wells per condition.
# BDNF (50 ng/ml) and Estradiol-β (150 nM) were used as positive control and reference compounds respectively. Three separate cultures will be performed per condition, 12 wells per condition.
# Estradiol-β at 150 nM was used as a positive control (FIG. 4).
# Estradiol-β was solved in culture medium and pre-incubated for 1 h before the amyloid-β1-42 application.
# The following conditions were assessed: • CONTROL PLAQUE: 12 wells/condition • Negative Control: medium alone+0.1% DMSO • Intoxication: amyloid-β1-42 (10 μM) for 24 h • Reference compound: Estradiol (150 nM) 1 hr. • DRUG PLATE: 6 wells/condition • Negative Control: medium alone+0.1% DMSO • Intoxication: amyloid-β1-42 (10 μM) for 24 h • Test compound(s): test compound(s)—1 hr followed by amyloid-β1-42 (10 μM) for 24 h Lactate Dehydrogenase (LDH) Activity Assay
# 24 hours after intoxication, the supernatant was taken off and analyzed with Cytotoxicity Detection Kit (LDH, Roche Applied Science, ref: 11644793001, batch: 11800300). This colorimetric assay for the quantification of cell toxicity is based on the measurement of lactate dehydrogenase (LDH) activity released from the cytosol of dying cells into the supernatant.
# Data were expressed in percentage of control conditions (no intoxication, no amyloid=100%) in order to express the amyloid injury. All values were expressed as mean+/−SEM (s.e.mean) of the 3 cultures (n=6 wells per condition). Statistic analyses were done on the different conditions (ONE-WAY ANOVA followed by the Dunnett's test when it was allowed, Statview software version 5.0).
# [2] = test system: mice injected i.c.v. with Aβ25-35 peptide; assay: Spontaneous alternation, Y-maze test, after i.c.v. Aβ25-35; type: in vivo; details: Acamprosate 32 μg/kg/day, Baclofen 480 μg/kg/day
# Text: The Y-maze is made of grey polyvinylchloride. Each arm is 40 cm long, 13 cm high, 3 cm wide at the bottom, 10 cm wide at the top, and converging at an equal angle. […] An alternation is defined as entries into all three arms on consecutive occasions.
molecule,measurement,setting,value
NCCCS(=O)(=O)O [Homotaurine],prevention of Aβ1-42 intoxication by pre-treatment,[1]; 8 nM,99%
C[C@]12CC[C@@H]3c4ccc(O)cc4CC[C@H]3[C@@H]1CC[C@@H]2O [Estradiol],protection of neurons from amyloid injury,[1],−94%
COc1cc2c(cc1OC)C(=O)C(CC1CCN(Cc3ccccc3)CC1)C2 (centres unmarked) [Donepezil],"protection of percentage of alternation (Y-maze), low doses with Donepezil",[2]; Donepezil 0.25 mg/kg/day,32%
same,"effect on percentage of alternation (Y-maze), low doses (in words)",[2]; drugs alone: Donepezil 0.25 mg/kg/day,no significant effect
"BDNF: BDNF (50 ng/ml) used as positive control for neuroprotection (protein, UniProt P23560 19-247, looked up) Neurotrophic factor BDNF …: APMKEANIRGQGGLAYPGVRTHGTLESVNGPKAGSRGLTSLADTFEHVIEELLDEDQKVRPNEENNKDADLYTSRVMLSSQVPLEPPLLFLLEEYKNYLDAANMSMRVRRHSDPARRGELSVCDSISEWVTAADKKTAVDMSGGTVTVLEKVPVSKGQLKQYFYETKCNPMGYTKEGCRGIDKRHWNSQCRTTQSYVRALTMDSKKRIGWRFIRIDTSCVCTLTIKRGR",protection of neurons from amyloid injury,[1],−94%
